Reference: patent US20110111972A1, “SELECTIVITY PROFILING OF PI3K INTERACTING MOLECULES AGAINST MULTIPLE TARGETS” (CELLZOME AG, priority 2008, published 2011)

Key:
Type in all cases: binding
PI3K delta = biological target: T1, PI3K delta (Homo sapiens, UniProt O00329); assay: Drug pulldown with immobilized phenylthiazole ligand 1, Western blot detection; details: MOLT-4 cell lysate
T1 construct: endogenous in cells; host or cells: MOLT-4 (ATCC CRL-1582) cell lysate
Experimental: (§1) As biological material a cell lysate prepared from MOLT-4 cells was used. The drug pulldown experiment was performed as described in Example 2 with lysate samples containing 50 mg of protein. Captured proteins were eluted with DMSO containing buffer (lane 1), 100 μM of free phenylthiazole ligand 1 or SDS sample buffer (lane 3). The eluted samples were separated on SDS-polyacrylamide gels and transferred to membranes. The blots were first incubated with specific antibodies directed against PI3K gamma (FIG. 2A) and PI3K delta (FIG. 2B). Secondary detection antibodies labeled with fluorescent dyes for detection were used with the Odyssey infrared imaging system. Lane 1: DMSO elution control; lane 2: elution with 100 μM free phenylthiazole ligand 1; lane 3: SDS elution. […]
(§2) For Western blot analysis bound proteins were eluted from the affinity matrix and subsequently separated by SDS-Polyacrylamide gel elecrophoresis. PI3K gamma and PI3K delta were detected with specific antibodies (FIG. 2).
(§3) MOLT-4 cells were homogenized in a Potter S homogenizer in lysis buffer: 50 mM Tris-HCl, 0.8% NP40, 5% glycerol, 150 mM NaCl, 1.5 mM MgCl2, 25 mM NaF, 1 mM sodium vanadate, 1 mM DTT, pH 7.5. […] The supernatant was transferred again to a fresh 50 ml falcon tube, the protein concentration was determined by a Bradford assay (BioRad) and samples containing 50 mg of protein per aliquot were prepared. […]

PI3K gamma = biological target: T2, PI3K gamma (Homo sapiens, UniProt P48736); assay: as above; details: MOLT-4 cell lysate
T2 construct: PI3K gamma protein was captured by immobilized phenylthiazole ligand 1 from MOLT-4 cell lysate; endogenous in cells; host or cells: MOLT-4 (ATCC CRL-1582) cell lysate
Experimental: as §1, §2, §3

mTOR = biological target: T3, mTOR (Homo sapiens, UniProt P42345); assay: Drug pulldown with immobilized phenylthiazole ligand 1, mass spectrometry analysis; details: 1:1 mixture of Jurkat and Ramos cell lysate
T3 construct: with a 1:1 mixture of Jurkat and Ramos cell lysate sample containing 50 mg of protein; endogenous in cells; host or cells: 1:1 mixture of Jurkat and Ramos cell lysates
From the text: (§4) A protein gel after staining with Coomassie blue is shown. The indicated gel areas were cut out as gel slices and proteins were subjected to analysis by mass spectrometry. […] Proteins bound to immobilized phenylthiazole ligand 1 were eluted with SDS sample buffer and separated by SDS-polyacrylamide gel electrophoresis (SDS-PAGE). The following proteins were identified in this experiment: DNA-PK, ATM, and mTOR. […] Beads were collected, transfered to Mobicol-columns (MoBiTech 10055) and washed with 10 ml lysis buffer containing 0.5% NP40 detergent, followed by 5 ml lysis buffer with 0.25% detergent. […] Proteins were then separated by SDS-Polyacrylamide electrophoresis (SDS-PAGE). Gel-separated proteins were reduced, alkylated and digested in gel essentially following the procedure described by Shevchenko et al., 1996, Anal. Chem. 68:850-858. Briefly, gel-separated proteins were excised from the gel using a clean scalpel, reduced using 10 mM DTT (in 5 mM ammonium bicarbonate, 54° C., 45 min) and subsequently alkylated with 55 mM iodoacetamid (in 5 mM ammonium bicarbonate) at room temperature in the dark (30 minutes). Reduced and alkylated proteins were digested in gel with porcine trypsin (Promega) at a protease concentration of 12.5 ng/μl in 5 mM ammonium bicarbonate. Digestion was allowed to proceed for 4 hours at 37° C. and the reaction was subsequently stopped using 5 μl 5% formic acid. Gel plugs were extracted twice with 20 μl 1% TFA and pooled with acidified digest supernatants. […] Peptide samples were injected into a nano LC system (CapLC, Waters or Ultimate, Dionex) which was directly coupled either to a quadrupole TOF (QTOF2, QTOF Ultima, QTOF Micro, Micromass) or ion trap (LCQ Deca XP) mass spectrometer. […] Proteins were identified by correlating the measured peptide mass and fragmentation data with the same data computed from the entries in the database using the software tool Mascot (Matrix Science; Perkins et al., 1999. Probability-based protein identification by searching sequence databases using mass spectrometry data. Electrophoresis 20, 3551-3567). […]

DNA-PK = biological target: T4, DNA-PK (Homo sapiens, UniProt P78527); assay: as above; details: 1:1 mixture of Jurkat and Ramos cell lysate
T4 construct: with a 1:1 mixture of Jurkat and Ramos cell lysate sample containing 50 mg of protein; endogenous in cells; host or cells: 1:1 mixture of Jurkat and Ramos cell lysates
From the text: as §4

ATM = biological target: T5, ATM (Homo sapiens, UniProt Q13315); assay: as above; details: 1:1 mixture of Jurkat and Ramos cell lysate
T5 construct: with a 1:1 mixture of Jurkat and Ramos cell lysate sample containing 50 mg of protein; endogenous in cells; host or cells: 1:1 mixture of Jurkat and Ramos cell lysates
From the text: as §4

T4 sequence (P78527 whole entry): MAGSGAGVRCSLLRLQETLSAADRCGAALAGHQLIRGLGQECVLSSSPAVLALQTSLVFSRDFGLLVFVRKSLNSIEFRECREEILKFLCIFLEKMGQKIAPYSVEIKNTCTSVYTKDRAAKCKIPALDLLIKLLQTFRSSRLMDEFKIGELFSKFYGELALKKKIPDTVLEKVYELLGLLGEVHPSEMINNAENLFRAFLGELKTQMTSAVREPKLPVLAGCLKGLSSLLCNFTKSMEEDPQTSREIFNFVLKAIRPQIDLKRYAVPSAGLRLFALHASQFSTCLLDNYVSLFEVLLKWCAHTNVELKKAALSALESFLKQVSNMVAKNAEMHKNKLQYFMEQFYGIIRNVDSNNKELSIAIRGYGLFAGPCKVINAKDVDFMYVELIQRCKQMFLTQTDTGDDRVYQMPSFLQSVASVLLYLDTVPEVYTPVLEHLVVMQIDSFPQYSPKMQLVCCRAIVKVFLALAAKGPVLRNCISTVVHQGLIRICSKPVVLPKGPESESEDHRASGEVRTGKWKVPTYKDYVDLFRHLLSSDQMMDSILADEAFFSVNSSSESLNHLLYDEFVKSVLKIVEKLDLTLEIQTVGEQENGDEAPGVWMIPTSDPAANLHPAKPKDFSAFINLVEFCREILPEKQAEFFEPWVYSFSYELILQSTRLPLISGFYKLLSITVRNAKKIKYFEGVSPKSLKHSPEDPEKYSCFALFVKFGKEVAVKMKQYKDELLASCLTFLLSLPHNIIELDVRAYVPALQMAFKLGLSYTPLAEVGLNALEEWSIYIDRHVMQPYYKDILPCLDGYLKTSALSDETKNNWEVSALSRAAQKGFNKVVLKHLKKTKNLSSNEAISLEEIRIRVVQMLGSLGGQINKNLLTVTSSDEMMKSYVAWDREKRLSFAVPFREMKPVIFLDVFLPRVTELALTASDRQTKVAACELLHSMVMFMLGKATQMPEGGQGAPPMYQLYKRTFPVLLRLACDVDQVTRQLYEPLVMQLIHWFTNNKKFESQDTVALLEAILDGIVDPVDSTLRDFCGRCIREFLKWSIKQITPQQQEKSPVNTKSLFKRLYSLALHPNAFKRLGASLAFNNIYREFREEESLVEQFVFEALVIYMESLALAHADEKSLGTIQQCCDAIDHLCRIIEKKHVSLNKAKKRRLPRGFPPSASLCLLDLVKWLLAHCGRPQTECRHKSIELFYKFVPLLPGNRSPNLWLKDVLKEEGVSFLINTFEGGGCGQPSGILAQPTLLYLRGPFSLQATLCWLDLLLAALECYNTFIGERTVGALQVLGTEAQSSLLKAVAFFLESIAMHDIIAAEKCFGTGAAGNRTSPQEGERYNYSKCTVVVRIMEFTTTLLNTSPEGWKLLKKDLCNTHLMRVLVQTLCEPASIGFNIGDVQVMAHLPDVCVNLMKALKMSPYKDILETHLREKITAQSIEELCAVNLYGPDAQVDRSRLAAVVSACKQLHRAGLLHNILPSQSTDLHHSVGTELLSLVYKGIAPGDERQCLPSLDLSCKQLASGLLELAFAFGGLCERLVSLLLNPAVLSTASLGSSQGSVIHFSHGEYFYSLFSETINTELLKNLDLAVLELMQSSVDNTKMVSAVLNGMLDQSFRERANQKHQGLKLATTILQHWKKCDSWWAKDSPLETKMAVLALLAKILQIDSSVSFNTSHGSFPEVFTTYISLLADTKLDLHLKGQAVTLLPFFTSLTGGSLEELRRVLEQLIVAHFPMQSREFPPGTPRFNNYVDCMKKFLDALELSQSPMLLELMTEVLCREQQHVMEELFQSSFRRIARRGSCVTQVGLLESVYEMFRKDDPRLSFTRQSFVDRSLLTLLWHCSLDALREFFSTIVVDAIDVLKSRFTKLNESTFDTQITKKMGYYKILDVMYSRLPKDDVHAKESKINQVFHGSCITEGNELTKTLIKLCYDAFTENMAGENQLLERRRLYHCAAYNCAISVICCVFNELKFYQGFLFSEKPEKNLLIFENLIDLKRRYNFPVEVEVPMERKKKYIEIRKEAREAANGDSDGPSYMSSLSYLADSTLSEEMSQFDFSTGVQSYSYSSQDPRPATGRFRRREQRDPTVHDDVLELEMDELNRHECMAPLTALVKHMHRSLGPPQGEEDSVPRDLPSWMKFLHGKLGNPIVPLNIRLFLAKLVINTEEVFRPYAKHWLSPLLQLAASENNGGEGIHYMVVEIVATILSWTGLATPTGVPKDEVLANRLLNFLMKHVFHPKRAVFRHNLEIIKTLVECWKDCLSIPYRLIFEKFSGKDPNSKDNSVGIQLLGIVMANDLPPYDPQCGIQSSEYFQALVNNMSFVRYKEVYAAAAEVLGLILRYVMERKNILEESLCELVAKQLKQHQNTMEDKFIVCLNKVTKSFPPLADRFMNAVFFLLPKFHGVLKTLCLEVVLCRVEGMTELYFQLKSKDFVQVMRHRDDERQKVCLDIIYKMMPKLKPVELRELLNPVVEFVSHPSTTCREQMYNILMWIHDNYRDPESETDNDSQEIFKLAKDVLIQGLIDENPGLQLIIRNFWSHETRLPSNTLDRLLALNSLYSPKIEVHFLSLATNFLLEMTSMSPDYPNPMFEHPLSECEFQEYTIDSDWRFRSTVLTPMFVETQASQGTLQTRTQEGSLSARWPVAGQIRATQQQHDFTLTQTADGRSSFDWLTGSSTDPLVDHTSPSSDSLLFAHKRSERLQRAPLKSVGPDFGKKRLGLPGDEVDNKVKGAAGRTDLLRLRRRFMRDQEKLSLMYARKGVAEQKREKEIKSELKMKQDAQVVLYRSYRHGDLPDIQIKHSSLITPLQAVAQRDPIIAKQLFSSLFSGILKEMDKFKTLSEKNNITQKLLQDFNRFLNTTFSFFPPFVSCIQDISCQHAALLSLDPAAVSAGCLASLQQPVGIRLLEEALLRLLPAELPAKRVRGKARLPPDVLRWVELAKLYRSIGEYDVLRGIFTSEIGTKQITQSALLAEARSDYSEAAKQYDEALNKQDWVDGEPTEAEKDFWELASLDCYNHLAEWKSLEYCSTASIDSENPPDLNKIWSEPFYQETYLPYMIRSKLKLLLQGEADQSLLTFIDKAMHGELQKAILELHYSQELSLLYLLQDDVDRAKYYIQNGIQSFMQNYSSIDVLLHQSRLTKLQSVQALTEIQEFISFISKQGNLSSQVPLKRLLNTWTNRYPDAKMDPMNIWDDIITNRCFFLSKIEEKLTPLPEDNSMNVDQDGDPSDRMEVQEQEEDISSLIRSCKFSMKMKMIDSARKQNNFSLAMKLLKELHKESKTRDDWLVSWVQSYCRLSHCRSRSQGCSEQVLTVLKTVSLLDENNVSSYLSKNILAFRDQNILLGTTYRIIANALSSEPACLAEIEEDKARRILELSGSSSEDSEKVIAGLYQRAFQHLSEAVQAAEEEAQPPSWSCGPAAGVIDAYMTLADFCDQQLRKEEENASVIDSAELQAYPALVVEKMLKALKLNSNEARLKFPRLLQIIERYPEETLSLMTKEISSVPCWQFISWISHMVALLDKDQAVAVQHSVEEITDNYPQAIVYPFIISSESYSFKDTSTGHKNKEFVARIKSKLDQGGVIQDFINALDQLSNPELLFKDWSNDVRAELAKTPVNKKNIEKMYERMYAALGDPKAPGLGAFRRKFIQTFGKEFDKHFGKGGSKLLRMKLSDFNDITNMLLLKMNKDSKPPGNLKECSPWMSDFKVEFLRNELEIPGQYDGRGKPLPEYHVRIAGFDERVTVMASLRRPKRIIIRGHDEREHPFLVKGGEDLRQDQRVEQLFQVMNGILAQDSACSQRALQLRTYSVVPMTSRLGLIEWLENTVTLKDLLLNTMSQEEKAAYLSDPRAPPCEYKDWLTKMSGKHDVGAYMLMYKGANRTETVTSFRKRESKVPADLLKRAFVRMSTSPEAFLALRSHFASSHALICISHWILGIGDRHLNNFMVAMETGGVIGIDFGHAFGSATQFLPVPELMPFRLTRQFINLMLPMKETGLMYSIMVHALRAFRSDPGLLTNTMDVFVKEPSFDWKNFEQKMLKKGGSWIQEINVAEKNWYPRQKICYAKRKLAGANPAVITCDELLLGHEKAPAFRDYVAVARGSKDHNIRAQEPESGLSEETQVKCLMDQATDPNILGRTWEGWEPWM

Cc1nc(NC(=O)CCOCCOCCOCCOCCN)sc1-c1ccc(Cl)c(S(C)(=O)=O)c1.Cl [phenylthiazole ligand 1, 3-(2-{2-[2-(2-amino-ethoxy)-ethoxy]-ethoxy}-ethoxy)-N-[5-(4-chloro-3-methanesulfonyl-phenyl)-4-methyl-thiazol-2yl]-propionamide hydrochloride]
capture (pulldown) of PI3K delta from cell lysate (PI3K delta): captures (pulls down) | capture (pulldown) of PI3K gamma from cell lysate (PI3K gamma): captures (pulls down) | mTOR bound to immobilized ligand, identified by mass spectrometry (mTOR): identified | DNA-PK bound to immobilized ligand, identified by mass spectrometry (DNA-PK): identified | ATM bound to immobilized ligand, identified by mass spectrometry (ATM): identified
